Measurements reported in patent publication US7713971B2, “1,2,4-triazine derivatives, preparation and use thereof in human therapy” (Pierre Fabre Medicament, priority 2005, dated 2010).
Where two headings read alike, the source gives them in different places.

What was measured:
[1] = system: insulin-resistant male rat (Ico: ZUCKER-fa/fa); assay: Normalization of metabolic parameters (cholesterol, plasma triglycerides) in insulin-resistant rat; assay type: in vivo; conditions: oral route, once per day for four days, Zucker fa/fa rat unfed 16-18 hours; for change in vivo at 2.5 mg/kg / change in vivo at 10 mg/kg: 96 h
Procedure: Normalization of metabolic parameters (cholesterol, plasma triglycerides) in an insulin-resistant male rat (Ico: ZUCKER-fa/fa), unfed for 16-18 hours, after treatment by oral route, once per day for four days, with the compounds to be evaluated or their administration vehicle.
These metabolic parameters are measured by spectrophotometry at the beginning and the end of each animal's treatment.

human PPARγ = target: T1, human PPARγ (Homo sapiens, UniProt P37231); assay: Reporter gene transactivation, hPPAR-GAL4 gamma; assay type: cell-based; conditions: transfected Cos-7 cells, Gal-4 luciferase reporter, 24 hours treatment
T1 construct: expressed in transfected cells; host or cells: Cos-7 cells (ATCC, CRL-1651)
T1 sequence (P37231 238-503 limits assumed): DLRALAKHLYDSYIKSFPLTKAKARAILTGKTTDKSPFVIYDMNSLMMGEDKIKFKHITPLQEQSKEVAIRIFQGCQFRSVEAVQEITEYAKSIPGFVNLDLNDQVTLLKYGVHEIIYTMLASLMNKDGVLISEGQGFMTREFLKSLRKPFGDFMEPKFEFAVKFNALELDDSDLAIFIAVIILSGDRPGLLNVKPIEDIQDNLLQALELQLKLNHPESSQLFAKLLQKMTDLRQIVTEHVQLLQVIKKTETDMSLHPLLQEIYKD

human PPARα = target: T2, human PPARα (Homo sapiens, UniProt Q07869); assay: Reporter gene transactivation, hPPAR-GAL4 alpha; assay type: cell-based; conditions: transfected Cos-7 cells, Gal-4 luciferase reporter, 24 hours treatment
T2 construct: expressed in transfected cells; host or cells: Cos-7 cells (ATCC, CRL-1651)
T2 sequence (Q07869 239-466 limits assumed): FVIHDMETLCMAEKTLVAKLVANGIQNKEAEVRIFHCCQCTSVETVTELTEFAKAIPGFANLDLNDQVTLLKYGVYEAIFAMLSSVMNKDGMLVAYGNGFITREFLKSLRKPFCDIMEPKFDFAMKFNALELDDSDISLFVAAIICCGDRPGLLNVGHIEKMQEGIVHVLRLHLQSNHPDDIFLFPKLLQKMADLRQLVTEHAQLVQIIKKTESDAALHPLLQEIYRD

[2] = at 2.5 mg/kg, read-out: Plasma cholesterol
[3] = at 2.5 mg/kg, read-out: Plasma triglycerides
[4] = at 10 mg/kg, read-out: Plasma cholesterol
[5] = at 10 mg/kg, read-out: Plasma triglycerides

SMILES	change in vivo at 2.5 mg/kg [1, 2] [%]	change in vivo at 2.5 mg/kg [1, 3] [%]	change in vivo at 10 mg/kg [1, 4] [%]	change in vivo at 10 mg/kg [1, 5] [%]	EC50 (human PPARγ) [nM]	EC50 (human PPARα) [nM]	Plasma triglycerides ([1]; at 10 mg/kg)	Plasma triglycerides ([1]; at 2.5 mg/kg)	Plasma cholesterol ([1]; at 10 mg/kg)
CCCCCCCn1nc(NCCc2ccc(SC(C)(C)C(=O)O)cc2)c(=O)n(C)c1=O [Example 120, 2-{4-[2-(2-Heptyl-4-methyl-3,5-dioxo-2,3,4,5-tetrahydro-[1,2,4]triazin-6-ylamino)-ethyl]-phenylsulfanyl}-2-methyl-propionic Acid]	-32	-27	-33	-73	1000 to 3000	300 to 1000	–	–	–
CCCCCCCn1c(=O)c(NCCCCc2cccc(OC(C)(C)C(=O)OCC)c2)nn(CCCC(F)(F)F)c1=O [Example 85, Ethyl 2-(3-{4-[4-heptyl-3,5-dioxo-2-(4,4,4-trifluoro-butyl)-2,3,4,5-tetrahydro-[1,2,4]triazin-6-ylamino]-butyl}-phenoxy)-2-methyl-propionate]	–	–	-21	–	1000 to 3000	~30	active at 10 mg/kg	–	–
CCOC(=O)C(C)(C)Sc1cccc(CCCCNc2nn(C)c(=O)n(CCCC(F)(F)F)c2=O)c1 [Example 95]	-18	–	-40	–	> 10000	1000 to 3000	inactive at .10	–	–
Cn1nc(NCCCCc2cccc(OC(C)(C)C(=O)O)c2)c(=O)n(CCCC(F)(F)F)c1=O [Example 79, 2-Methyl-2-(3-{4-[2-methyl-3,5-dioxo-4-(4,4,4-trifluoro-butyl)-2,3,4,5-tetrahydro-[1,2,4]triazin-6-ylamino]-butyl}-phenoxy)-propionic Acid]	-32	-55	–	–	3000 to 10000	~30	–	–	–
CCCCCCCn1nc(NCCc2ccc(SC(C)(C)C(=O)O)cc2)c(=O)n(CCCC)c1=O [Example 121, 2-{4-[2-(4-Butyl-2-heptyl-3,5-dioxo-2,3,4,5-tetrahydro-[1,2,4]triazin-6-ylamino)-ethyl]-phenylsulfanyl}-2-methyl-propionic Acid]	-7	-24	–	–	1000 to 3000	30 to 100	–	–	–
CCCCCCCn1c(=O)c(NCCCOc2ccc(OC(C)(C)C(=O)OCC)cc2)nn(C)c1=O [Example 47, Ethyl 2-{4-[3-(4-heptyl-4-methyl-3,5-dioxo-2,3,4,5-tetrahydro-[1,2,4]triazin-6-ylamino)-propoxy]-phenoxy}-2-methyl-propionate]	–	–	-25	-45	~300	~300	–	–	–
CCCCCCCn1nc(NCCCc2cccc(OC(C)(C)C(=O)OCC)c2)c(=O)n(Cc2ccccc2)c1=O [Example 72, Ethyl 2-{3-[3-(4-Benzyl-2-heptyl-3,5-dioxo-2,3,4,5-tetrahydro-[1,2,4]triazin-6-ylamino)-propyl]-phenoxy}-2-methyl-propionate]	–	–	-21	–	3000 to 10000	3000 to 10000	inactive at 10	–	–
CCCCCCCn1nc(NCCCCc2cccc(OC(C)(C)C(=O)OCC)c2)c(=O)n(CCCC(F)(F)F)c1=O [Example 82, Ethyl 2-(3-{4-[2-heptyl-3,5-dioxo-4-(4,4,4-trifluoro-butyl)-2,3,4,5-tetrahydro-[1,2,4]triazin-6-ylamino]-butyl}-phenoxy)-2-methyl-propionate]	–	–	-13	–	100 to 300	~10	active at 10 mg/kg	–	–
CCOC(=O)C(C)(C)Oc1cccc(CCCNc2nn(C)c(=O)n(CCCC(F)(F)F)c2=O)c1 [Example 65, Ethyl 2-methyl-2-(3-{3-[2-methyl-3,5-dioxo-4-(4,4,4-trifluoro-butyl)-2,3,4,5-tetrahydro-[1,2,4]triazin-6-ylamino]-propyl}-phenoxy)-propionate]	-13	–	-23	-13	> 10000	100 to 300	–	inactive at 2.5	–
CCOC(=O)C(C)(C)Oc1cccc(CCCCCNc2nn(CCCC(F)(F)F)c(=O)n(CCCC(F)(F)F)c2=O)c1 [Example 92, Ethyl 2-(3-{5-[3,5-dioxo-2,4-bis-(4,4,4-trifluoro-butyl)-2,3,4,5-tetrahydro-[1,2,4]triazin-6-ylamino]-pentyl}-phenoxy)-2-methyl-propionate]	–	–	-18	–	3000 to 10000	3 to 10	inactive at 10	–	–
CCCCCCCn1nc(OCCCCCc2cccc(OC(C)(C)C(=O)OCC)c2)c(=O)n(CCCC)c1=O [Example 15, Ethyl 2-{3-[5-(4-butyl-2-heptyl-3,5-dioxo-2,3,4,5-tetrahydro-[1,2,4]triazin-6-yloxy)-pentyl]-phenoxy}-2-methyl-propionate]	-4	-22	-8	-63	100 to 300	1 to 3	–	–	–
CCOC(=O)C(C)(C)Oc1cccc(CCCCNc2nn(C)c(=O)n(CCCC(F)(F)F)c2=O)c1 [Example 77, Ethyl 2-methyl-2-(3-{4-[2-methyl-3,5-dioxo-4-(4,4,4-trifluoro-butyl)-2,3,4,5-tetrahydro-[1,2,4]triazin-6-ylamino]-butyl}-phenoxy)-propionate]	-29	–	-35	–	3000 to 10000	~300	active at 10 mg/kg	–	–
CCCCn1c(=O)c(OCCCCCc2cccc(OC(C)(C)C(=O)OCC)c2)nn(C)c1=O [Example 11, Ethyl 2-{3-[5-(4-butyl-2-methyl-3,5-dioxo-2,3,4,5-tetrahydro-[1,2,4]triazin-6-yloxy)-pentyl]-phenoxy}-2-methyl-propionate]	-25	–	-25	-37	1000 to 3000	300 to 1000	–	inactive at 2.5	–
CCOC(=O)C(C)(C)Oc1cccc(CCCCNc2nn(CCCC(F)(F)F)c(=O)n(C)c2=O)c1 [Example 74, Ethyl 2-methyl-2-(3-{4-[4-methyl-3,5-dioxo-2-(4,4,4-trifluoro-butyl)-2,3,4,5-tetrahydro-[1,2,4]triazin-6-ylamino]-butyl}-phenoxy)-propionate]	-18	–	-29	-26	3000 to 10000	~1000	–	inactive at 2.5	–
CCCCCCCn1c(=O)c(OCCCCCc2cccc(OC(C)(C)C(=O)OCC)c2)nn(C)c1=O [Example 17, Ethyl 2-{3-[5-(4-heptyl-2-methyl-3,5-dioxo-2,3,4,5-tetrahydro-[1,2,4]triazin-6-yloxy)-pentyl]-phenoxy}-2-methyl-propionate]	–	–	–	-37	~300	300 to 1000	–	–	active at 10
CCCCCCCn1c(=O)c(NCCCc2cccc(OC(C)(C)C(=O)OCC)c2)nn(CCCC(F)(F)F)c1=O [Example 68, Ethyl 2-(3-{3-[4-heptyl-3,5-dioxo-2-(4,4,4-trifluoro-butyl)-2,3,4,5-tetrahydro-[1,2,4]triazin-6-ylamino]-propyl}-phenoxy)-2-methyl-propionate]	–	–	-21	–	3000 to 10000	100 to 300	active at 10 mg/kg	–	–
CCCCCCCn1nc(NCCCOc2ccc(OC(C)(C)C(=O)OCC)cc2)c(=O)n(C)c1=O [Example 45, Ethyl 2-{4-[3-(2-heptyl-4-methyl-3,5-dioxo-2,3,4,5-tetrahydro-[1,2,4]triazin-6-ylamino)-propoxy]-phenoxy}-2-methyl-propionate]	–	–	-16	–	~3000	1000 to 3000	inactive at 10	–	–
CCCCCCCn1nc(NCCc2ccc(SC(C)(C)C(=O)OCC)cc2)c(=O)n(C)c1=O [Example 119, Ethyl 2-{4-[2-(2-heptyl-4-methyl-3,5-dioxo-2,3,4,5-tetrahydro-[1,2,4]triazin-6-ylamino)-ethyl]-phenylsulfanyl}-2-methyl-propionate]	-21	–	-32	-29	300	300	–	active at 2.5	–
